Results on 2 compounds are retold here after paper PMC8000495, “A New Anti-Estrogen Discovery Platform Identifies FDA-Approved Imidazole Anti-Fungal Drugs as Bioactive Compounds against ERα Expressing Breast Cancer Cells” (International Journal of Molecular Sciences, 2021).

In experiment [1] the target is T1, estrogen receptor α (ERα) (Homo sapiens, UniProt P03372).
T1 construct: gene ESR1
T1 sequence (P03372 1-595): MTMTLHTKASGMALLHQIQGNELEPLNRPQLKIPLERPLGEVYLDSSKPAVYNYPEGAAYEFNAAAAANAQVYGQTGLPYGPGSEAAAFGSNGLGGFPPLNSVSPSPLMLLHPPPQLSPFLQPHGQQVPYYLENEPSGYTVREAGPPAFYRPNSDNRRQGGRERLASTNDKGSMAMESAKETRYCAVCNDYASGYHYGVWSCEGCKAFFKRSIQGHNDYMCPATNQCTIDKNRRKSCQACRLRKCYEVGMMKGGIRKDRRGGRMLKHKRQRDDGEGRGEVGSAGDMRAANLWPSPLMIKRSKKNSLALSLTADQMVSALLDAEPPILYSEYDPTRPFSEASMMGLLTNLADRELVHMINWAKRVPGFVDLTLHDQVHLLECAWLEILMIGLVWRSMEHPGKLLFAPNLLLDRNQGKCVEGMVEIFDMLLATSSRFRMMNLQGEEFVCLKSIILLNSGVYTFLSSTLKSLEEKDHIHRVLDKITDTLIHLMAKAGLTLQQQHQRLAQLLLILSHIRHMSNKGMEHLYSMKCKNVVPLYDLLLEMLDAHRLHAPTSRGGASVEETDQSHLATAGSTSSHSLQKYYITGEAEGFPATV
The experiment can be described thus: fluorescence polarization competitive binding, dose-response.

Experiment [2] addresses T1, estrogen receptor α (ERα).

In the case of `Clc1ccc(C(Cn2ccnc2)OCc2ccc(Sc3ccccc3)cc2)c(Cl)c1` (centres unmarked) [Fenti, fenticonazole], the IC50 in experiment [1] was around 14 µM. Turning to `Oc1ccc(/C=C/c2cc(O)cc(O)c2)cc1` [resveratrol], the “fluorescence polarization competitive binding screen, single dose 10^-4 M, Z* >” value in experiment [2] is listed as “we found well-known receptor ligands (e.g., estriol, resveratrol, genistein)”.
